{"source": "paper PMC2579264", "about": "(European journal of pharmacology, 2008)", "key": {"[1]": {"biological_target": "T1, human neuropeptide Y Y2 receptor, A^34A^35 (Homo sapiens, UniProt P49146, D35A/P34A)", "T1 sequence (P49146 1-381 P34A/D35A)": "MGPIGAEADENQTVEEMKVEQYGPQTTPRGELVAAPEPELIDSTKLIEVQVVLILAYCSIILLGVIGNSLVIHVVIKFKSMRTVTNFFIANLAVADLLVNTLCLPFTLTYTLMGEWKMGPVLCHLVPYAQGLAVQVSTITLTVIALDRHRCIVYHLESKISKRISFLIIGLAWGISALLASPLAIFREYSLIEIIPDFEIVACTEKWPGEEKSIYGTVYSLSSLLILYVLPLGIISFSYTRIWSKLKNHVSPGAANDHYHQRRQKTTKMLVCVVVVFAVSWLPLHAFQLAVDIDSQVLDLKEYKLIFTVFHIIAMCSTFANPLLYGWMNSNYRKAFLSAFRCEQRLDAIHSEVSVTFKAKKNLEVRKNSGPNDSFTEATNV", "assay": "Receptor-linked internalization of agonist, A^34A^35 mutant", "assay_type": "cell-based", "details": "heparin 5 µM, n = 12"}, "[2]": {"biological_target": "T2, human neuropeptide Y Y2 receptor, wildtype (P^34D^35) (Homo sapiens, UniProt P49146)", "T2 sequence (P49146 1-381)": "T1 sequence (P49146 1-381 P34A/D35A) with A34P, A35D", "assay": "Receptor-linked internalization of agonist, wildtype Y2 receptor", "assay_type": "cell-based", "details": "heparin 5 µM, n = 12"}, "[3]": {"test_system": "neuropeptide Y Y2 receptor", "assay": "Effect of heparin on binding of peptide YY", "set-up": "species or system human", "details": "heparin up to 30 µM; cell surface or particulate Y2 receptors"}, "[4]": {"test_system": "Chinese hamster ovary (CHO) cells", "assay": "Loss of cell protein or detachment of cells after digitonin pretreatment", "assay_type": "cell-based", "details": "10 µM digitonin pretreatment at 25 °C"}, "[5]": {"biological_target": "T1, human neuropeptide Y Y2 receptor, A^34A^35", "assay": "Compartmentalization: unmasking / depletion of surface sites, A^34A^35 mutant", "assay_type": "cell-based"}, "[6]": {"test_system": "human neuropeptide Y Y2 receptor, wildtype", "assay_type": "cell-based"}, "[7]": {"test_system": "CHO cells expressing the A^34A^35 receptor", "assay": "Bio-Gel P-4 gel filtration of internalized agonist, A^34A^35 receptor", "details": "100 pM [^125I] peptide YY(3–36); detected by [^125I] label; 2 to 15 min"}}, "note": "Substitutions are numbered along the chain they refer to."}
{"compound": "heparin", "values": [{"measurement": "increase of internalization of 100 pM [^125I] peptide YY(3–36)", "setting": "[1]; 4 min", "value": "43.5 ± 3.5", "unit": "%"}, {"measurement": "increase of internalization of 100 pM [^125I] peptide YY(3–36)", "setting": "[1]; 10 min", "value": "25.1 ± 5", "unit": "%"}, {"measurement": "increase of internalization of 100 pM [^125I] peptide YY(3–36)", "setting": "[2]; 4 min", "value": "19.4 ± 2", "unit": "%"}, {"measurement": "increase of internalization of 100 pM [^125I] peptide YY(3–36)", "setting": "[2]; 10 min", "value": "4.8 ± 1.8", "unit": "%"}, {"measurement": "effect on affinity and capacity of binding of peptide YY(3–36)", "setting": "[3]", "value": "did not affect the affinity and capacity of the binding"}]}
{"compound": "C[C@@H]1CC[C@@]2(OC1)O[C@H]1[C@@H](O)[C@H]3[C@@H]4CC[C@H]5C[C@@H](O[C@@H]6O[C@H](CO)[C@H](O[C@@H]7O[C@H](CO)[C@@H](O)[C@H](O[C@@H]8OC[C@@H](O)[C@H](O)[C@H]8O)[C@H]7O[C@@H]7O[C@H](CO)[C@H](O)[C@H](O[C@@H]8O[C@H](CO)[C@@H](O)[C@H](O)[C@H]8O)[C@H]7O)[C@H](O)[C@H]6O)[C@H](O)C[C@]5(C)[C@H]4CC[C@]3(C)[C@H]1[C@@H]2C", "note": "[digitonin]", "values": [{"measurement": "loss of cell protein or detachment of cells", "setting": "[4]", "value": "did not result in a loss of cell protein or a detachment of cells"}]}
{"compound": "pertussis toxin: pertussis toxin, used to deplete the compartmentalized surface Y2 sites", "values": [{"measurement": "basal cell surface binding of [^125I] peptide YY(3–36) after pertussis toxin", "setting": "[5]", "value": "did not substantially reduce"}, {"measurement": "surface sites unmasked by the arsenical after pertussis toxin", "setting": "[5]", "value": "almost eliminated"}, {"measurement": "basal cell surface binding of [^125I] peptide YY(3–36) after pertussis toxin", "setting": "[6]", "value": "did not substantially reduce"}, {"measurement": "surface sites unmasked by the arsenical after pertussis toxin", "setting": "[6]", "value": "strongly reduced"}]}
{"compound": "N[C@@H](Cc1ccc(O)cc1)C(=O)O", "note": "[C-terminal tyrosine, tyrosine]", "values": [{"measurement": "accumulation of product of peptide YY processing in cells", "setting": "[7]", "value": "no accumulation"}]}
